{"source": "patent US8258182B2", "about": "“Substituted 1,3-diphenylpropane derivatives, preparations and uses thereof” (Genfit, priority 2006, dated 2012)", "key": {"[1]": {"test_system": "ApoE2/E2 mice", "experiment": "Plasma lipids in dyslipidemic ApoE2/E2 mice after per os treatment", "type": "in vivo, mouse", "conditions": "3 and 10 mpk per os, 14 days, vs control animals (FIG. 2-3)", "method": "The dyslipidemic E2/E2 mouse's rates of total cholesterol, of triglycerides, and plasma free fatty acids are measured after 8 or 14 days of a per os treatment with the compounds according to the invention.\nThe hypolipidemic properties of the compounds according to the invention are evaluated in vivo by assaying plasma lipids and the analysis of the PPARs target genes expression in the liver after a treatment treating of the dyslipidemic E2/E2 mice with the compounds according to the invention.\nThe murine model used is the ApoE2/E2 mouse, a transgenic mouse having the human apolipoprotein E isoform E2 (Sullivan P M et al., 1998). In human, this apolipoprotein, a constituent of low and very low density lipoproteins (LDL-VLDL), is present in three isoforms E2, E3, and E4. The E2 form presents a mutation affecting the amino acid in position 158, which considerably weakens the affinity of this protein for LDL receptors. Accordingly, the VLDL clearance is nearly non-existent. An accumulation of low-density lipoproteins then occurs along with a mixed hyperlipidemia known as type III (elevated cholesterol and triglycerides).\nThe ApoE2/E2 transgenic mice were kept on a 12 hour/12 hour light/dark cycle at a constant temperature of 20±3° C. After a one week acclimatization period, the mice were weighed and divided into groups of 6 animals selected so as to render uniform the distribution of their body weights and plasma lipid rates, determined before the experiment. The tested compounds were suspended in carboxymethylcellulose (Sigma C4888) and administered by intra-gastric tube feeding once a day for 8 days (for compound 1) or 14 days (for compound 8) with the chosen doses. […] Taking of food and weight gain are recorded throughout the experiment. […]\nPlasma lipid concentrations (total cholesterol and triglycerides) are measured by enzymatic doses (bioMérieux-Lyon-France) according to the provider's recommendations.\nPlasma cholesterol and triglycerides rates are measured after 8 or 14 days of a per os treatment with the compounds according to the invention. […]"}, "[2]": {"test_system": "PPARs target genes (PDK4, ApoCIII, ACO) in the hepatic tissue", "experiment": "Hepatic expression of PPAR target genes in E2/E2 mice (quantitative RT-PCR)", "type": "in vivo, mouse", "conditions": "3 and 10 mpk", "method": "The effectiveness of the compounds according to the invention is also evaluated by measuring, in the hepatic tissue, the expression of genes involved in lipid and/or glucids metabolism and in energy dissipation. Each level of genes expression is normalised regarding the expression level of the reference gene 36B4's. The induction factor, i.e. the ratio between the relative signal (induced by the compound according to the invention) and the average of the relative values relating to the control group is then calculated. The higher the induction factor is, the more the compound promotes hepatic gene expression. The final result is expressed as an average of the induction values obtained with each experimental group.\nThe PPARα agonist properties previously measured in vitro should, in the liver, lead to an overexpression of the target genes directly under the control of the PPARα: the genes we have studied in this experiment are PDK-4 (an enzyme involved in glucid metabolism), Apo CIII (an apolipoprotein involved in lipid metabolism), and Acox1 (in mice, Acox1 corresponds to the ACO gene in humans (Acyl Co-enzymeA Oxydase, an enzyme key to the fatty acid β-oxidation mechanism)). Measuring the transcriptional activity of PPARα target genes after a treatment with compounds according to the invention does therefore allow to evaluate the hypolipidemic properties of the compounds according to the invention.\nThe ApoE2/E2 transgenic mice were kept on a 12 hour/12 hour light/dark cycle at a constant temperature of 20±3° C. After a one week acclimatization period, the mice were weighed and divided into groups of 6 animals selected so as to render uniform the distribution of their body weights and plasma lipid rates, determined before the experiment. The tested compounds were suspended in carboxymethylcellulose (Sigma C4888) and administered by intra-gastric tube feeding once a day for 8 days (for compound 1) or 14 days (for compound 8) with the chosen doses. The animals had free access to food and water (standard diet). Taking of food and weight gain are recorded throughout the experiment. At the end of the experiment, the animals were anesthetized after a 4 hour fast, and a blood sample was taken using (EDTA) anticoagulant, then the mice were weighed and euthanized. The plasma was separated by centrifugation at 3000 rotations/minute for 20 minutes. The samples were kept at +4° C.\nLiver samples were removed, frozen in liquid nitrogen, and kept at −80° C. for later analyses.\nTotal RNA is extracted from liver fragments by using the NucleoSpin® 96 RNA kit (Macherey Nagel, Hoerdt, France) according to the manufacturer's instructions.\n1 μg of total RNA (quantified by using the Ribogreen RNA quantification kit (Molecular Probes)) is then reverse-transcripted into complementary DNA by means of a 1 hour reaction at 37° C. in a total volume of 20 μl containing a 1× buffer (Sigma), 1.5 mM of DTT, 0.18 mM of dNTPs (Promega), 200 ng of pdN6 (Amersham), 30U of RNase inhibitor (Sigma), and 1 μl of MMLV-RT (Sigma).\nThe PCR quantitative experiments were carried out using the MyiQ Single-Color Real-Time PCR Detection System (Biorad, Marnes-la-Coquette, France) and were performed using the iQ SYBR Green Supermix kit according to the manufacturer's recommendations, in 96-well trays in 5 μl of a diluted reverse transcription solution at a hybridation temperature of 55° C. The specific primer pairs of the genes studied were used: • PDK4: sense primer: 5′-[…]-3′ (SEQ ID NO: 1) and antisense primer 5′-[…]-3′ (SEQ ID NO: 2)) • ApoCIII: sense primer: 5′-[…]-3′ (SEQ ID NO: 3) and antisense primer 5′-[…]-3′ (SEQ ID NO: 4). • ACO: sense primer: 5′-[…]-3′ (SEQ ID NO: 5) and antisense primer: 5′-[…]-3′ (SEQ ID NO: 6)\nThe quantity of fluorescencet emitted is directly proportional to the quantity of cDNA present at the beginning of the reaction and amplified during the PCR. […]"}}}
{"smiles": "CCCOc1ccc(C(=O)CCc2cc(C)c(OC(C)(C)C(=O)O)c(C)c2)cc1", "note": "[Compound 8, 2-[2,6-dimethyl-4-[3-[4-(propyloxy)phenyl]-3-oxo-propyl]phenoxyl]-2-methylpropanoic acid]", "values": [{"measurement": "plasma total cholesterol rates", "setting": "[1]", "value": "very significantly decreased"}, {"measurement": "hepatic expression of the genes coding for PDK4", "setting": "[2]; 14 days (FIG. 2-7)", "value": "significant augmentation"}, {"measurement": "hepatic expression of the genes coding for ApoCIII", "setting": "[2]; 14 days (FIG. 2-8)", "value": "reduction"}, {"measurement": "hepatic expression of the genes coding for ACO", "setting": "[2]; 14 days (FIG. 2-9)", "value": "significant augmentation"}]}
